According to patent US20080214680A1, “Application of arsenic as a cancer prevention agent” (priority 2003, published 2008):

Legend:
[1] = tested on: acute prontyelocytic leukemia cells; details: acute treatment of cells; cited from earlier work
[2] = tested on: acute prontyelocytic leukemia cells; test: Chen et al.: acute treatment of leukemia cells with arsenic trioxide; format: cell-based; details: equivalent of 0.1 μmoles per liter
Description: Bae cites a paper by Chen et at. (May 1, 1997) in his references, published more than a year before his patent filing, which recites the use of arsenic trioxide (As2O3) as an acute treatment on acute prontyelocytic leukemia cells. The treatment is effective over an exposure range of 0.5-2.0 μmoles per liter, but ineffective at 0.1 μmoles per liter. These values are equivalent to […] and 0.02 μg/ml, respectively. Chen requires just 9-36 percent of Bae's arsenic hexoxide dose to produce an acute effect on cells with arsenic trioxide. (Two percent of Bae's dose [0.1 μmoles per liter] is an […] cellular dose for arsenic trioxide.) For treating humans, Bae's prolonged daily exposure to arsenic hexoxide is 1818-times greater than […] effective cellular dose and 40,000-times greater than 50 ppb. Chen reports no human exposure data, but if he treated cancers in humans with an 1818-times greater daily dose of arsenic trioxide, that exposure would be 3600-14,400-times greater than this invention's 50 ppb or μg/L. Chen's ineffective dose would be 720-times greater than 50 μg/L.

For arsenic trioxide, the effective exposure range [1] is listed as 0.5-2.0 μmoles per liter, the ineffective exposure [1] is listed as 0.1 μmoles per liter and the “ineffective exposure, mass equivalent” value [2] is listed as 0.02 µg/mL.
